Results taken from patent US11691989B2, “Macrocyclic indoles as Mcl-1 inhibitors” (ASCENTAGE PHARMA (SUZHOU) CO., LTD., priority 2018, dated 2023).

Columns and labels:
[1] = target: Mcl-1 protein (residues 171-323) (Homo sapiens (Human), UniProt Q07820); experiment: Inhibition of Mcl-1 by fluorescence polarization (FP) competitive binding assay with FAM-Bid tracer; settings: 2 nM FAM-Bid, 20 nM Mcl-1, 30 min, read-out: Mc1-1 (FP)
Method: Inhibition of Mcl-1 by fluorescence polarization (FP) assay.
The method used a fluorescein labelled peptide (FAM-Bid) which binds to the Mcl-1 protein leading to an increased anisotropy measured in milli-polarization (mP) values using a plate reader.
A 10-points serial dilution of each compound was prepared in DMSO and 5 μL solution was transferred into flat bottomed, 96-well back plate (final DMSO concentration 5%). 120 μL of Buffer (PBS, 0.01% BGG (Sigma Cat. #SRE0011), 0.01% Triton X-100), containing the Fluorescein labelled peptide (Final concentration 2 nM) and Mcl-1 protein (final concentration 20 nM) was then added. […] 10-points dose response curves were plotted with GraphPad software using Sigmoidal Dose-Response Model and the IC50 values were determined by nonlinear regression fitting of the competition curves.

[2] = Microsome clearance assay, rat; assay type: in vitro ADME; settings: 0.5 mg/ml protein, 1 mM NADPH, 60 minutes; for microsomal CLint at 5 μM: male, Wister, rat, pooled liver microsomes, pH 7.4, rat liver microsomes, read-out: Rat Liver Microsome Clint (μL/min/mg protein)
Method: (§1) Representative Compounds of the Disclosure were tested in a microsome clearance assay. Pooled liver microsomes (20 mg/ml) from human, male Wister rat, and male CD-1 mouse were obtained from BD Bioscience (Franklin Lakes, N.J. USA). Incubation reaction mixtures contained a final concentration of 0.1M sodium phosphate buffer (pH 7.4), 0.5 mg/ml microsomal protein, 5 μM of test sample and 1 mM NADPH in a total volume of 400 μl. The incubations were done for 60 minutes and 300 μl of the mixtures was transferred to 150 μl of ice cold methanol to terminate reactions. After vortexes for 3 minutes and centrifuged at 4000 rpm at 4° C. for 10 minutes, the clear supernatant was used directly for analysis. The samples were analyzed by Applied Biosystems API 3200 Q TRAP LC/MS/MS system using electrospray ionization mode.

[3] = system: NCI-H929 cells; experiment: Cell viability assay (NCI-H929 cells), CCK-8; assay type: cell-based; settings: 5% FBS
Method: Cell Viability Assay (NCI-H929 cells)
NCI-H929 cells were obtained from American Type Culture Collection (ATCC). Cells were maintained in the recommended culture medium (RPMI 1640) with 10% FBS and 0.05 mM BME at 37° C. and an atmosphere of 5% CO2.
The effect of Compounds on cell viability was determined using Cell Counting Kit-8 (CCK-8) assay according to the manufacturer's instructions. 95 μL of NCI-H929 cell suspension (20000 cells/well) in culture medium were seeded into 96-well plates and cultured 4 hrs. Each tested compound was serially diluted in DMSO, then 5 μL of the compound or DMSO was diluted in 95 μL medium once more. At last, 5 μL of the compound dilution was added to the corresponding well of the cell plate. After the addition of the tested compound, the cells were incubated at 37° C. in an atmosphere of 5% CO2 for 24 hrs. At the end, 10 μL of CCK-8 solution was added to each well of the plate and incubated for 1-4 hours. The plates were read at 450 nm on the microplate reader (BioTek Synergy 1MF). The readings were normalized to the vehicle cells, and the IC50 was calculated by nonlinear regression analysis using GraphPad Prism 6 software.

[4] = system: OPM-2 cells; experiment: Cell viability assay (OPM-2 cells), CCK-8; assay type: cell-based; settings: 5% FBS
Method: Cell Viability Assay (OPM-2 cells)
OPM-2 cells were obtained from Deutsche Sammlung von Mikroorganismen and Zellkulturen GmbH (DSMZ). Cells were maintained in the recommended culture medium with 10% FBS at 37° C. and an atmosphere of 5% CO2.
The effect of representative Compounds of the Disclosure on cell viability was determined using Cell Counting Kit-8 (CCK-8) assay (Shanghai Life iLab Bio Technology) according to the manufacturer's instructions. Each tested compound was serially diluted in culture medium, 100 μL of the compound dilution was added into 96-well plates. 100 μL of an OPM-2 cell suspension (20000 cells/well) in culture medium were seeded into the corresponding well of the plate and the cells were incubated at 37° C. in an atmosphere of 5% CO2 for 24 hours. In the next day, 20 μL of CCK-8 solution was added to each well of the plate and incubated for 4 hours.
The plates were read at 450 nm on the microplate spectrophotometer (SpectraMax plus 384, Molecular devices). The readings were normalized to the vehicle cells, and the IC50 was calculated by nonlinear regression analysis using GraphPad Prism 6 software.

[5] = Microsome clearance assay, mouse; assay type: in vitro ADME; settings: 0.5 mg/ml protein, 1 mM NADPH, 60 minutes; for microsomal CLint at 5 μM: male, CD-1, mouse, pooled liver microsomes, pH 7.4, mouse liver microsomes, read-out: Mouse Liver Microsome Clint (μL/min/mg protein)
Method: as §1

[6] = Microsome clearance assay, human; assay type: in vitro ADME; settings: 0.5 mg/ml protein, 1 mM NADPH, 60 minutes; for microsomal CLint at 5 μM: human, pooled liver microsomes, pH 7.4, human liver microsomes, read-out: Human Liver Microsome Clint (μL/min/mg protein)
Method: as §1

Mcl-1 protein (residues 171-323), sequence (Q07820 171-323): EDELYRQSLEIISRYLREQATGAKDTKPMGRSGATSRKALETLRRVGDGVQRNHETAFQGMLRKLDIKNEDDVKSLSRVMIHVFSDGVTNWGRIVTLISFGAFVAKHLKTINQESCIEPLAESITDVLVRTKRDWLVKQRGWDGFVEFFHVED

Row | IC50 [1] [nM] | microsomal CLint at 5 μM [2] [µL/min/mg] | IC50 ([3]; Homo sapiens, NCI-H929, 24 h) [nM] | microsomal CLint at 5 μM [5] [µL/min/mg] | microsomal CLint at 5 μM [6] [µL/min/mg] | Rat Liver Microsome Clint (μL/min/mg protein) ([2]; rat liver microsomes, 5 μM) | IC50 ([3]; 24 hrs) [nM] | Mouse Liver Microsome Clint (μL/min/mg protein) ([5]; mouse liver microsomes, 5 μM) | Human Liver Microsome Clint (μL/min/mg protein) ([6]; human liver microsomes, 5 μM) | SMILES | IC50 ([4]; Homo sapiens, OPM-2, 24 h) [nM] | IC50 ([4]; 24 hours) [nM]
1 | 34 | 30 | 222 | 59.2 | 18.6 |  |  |  |  | Cc1c(C(=O)O)n2c3ccc(Cl)c(c13)-c1c(nn(C)c1C)CN(C(C)C)Cc1cc(n(C)n1)CSc1cc(c3ccc(F)cc3c1)OCCC2 [Cpd. No. 53, (Z)-1^5-chloro-9^6-fluoro-4-isopropyl-1^3,2^1,2^5,6^1-tetramethyl-1^1H,2^1H,6^1H-10-oxa-8-thia-4-aza-1(4,1)-indola-2(4,3),6(3,5)-dipyrazola-9(3,1)-naphthalenacyclotridecaphane-1^2-carboxylic acid] | 1710 | 
2 | 17 | 15 | 1540 | 30.6 | 7.4 |  |  |  |  | Cc1c(C(=O)O)n2c3ccc(Cl)c(c13)-c1c(nn3c1COCC3)CN(CCNS(C)(=O)=O)Cc1cc(n(C)n1)CSc1cc(c3ccc(F)cc3c1)OCCC2 [Cpd. No. 51, (Z)-1^5-chloro-9^6-fluoro-1^3, 6^1-di methyl-4-(2-(methylsulfonamido)ethyl)-26,27-dihydro-1^1H,2^4H,6^1H-10-oxa-8-thia-4-aza-2(3,2)-pyrazolo[5,1-c][1,4]oxazina-1(4,1)-indola-6(3,5)-pyrazola-9(3,1)-naphthalenacyclotridecaphane-1^2-carb oxylic acid] | 5820 | 
3 | 20 | 22.2 | 226 | 65.2 | 10.2 |  |  |  |  | COCCN1Cc2cc(n(C)n2)CSc2cc(c3ccc(F)cc3c2)OCCCn2c(C(=O)O)c(C)c3c(c(Cl)ccc32)-c2c(nn3c2COCC3)C1 [Cpd. No. 50, (Z)-1^5-chloro-9^6-fluoro-4-(2-methoxyethyl)-1^3, 6^1-dim ethyl-2^6,2^7-dihydro-1^1H,2^4H,6^1H-10-oxa-8-thia-4-aza-2(3,2)-pyrazolo[5,1-c][1,4]oxazina-1 (4,1)-indola-6(3,5)-pyrazola-9(3,1)-naphthalenacyclotridecaphane-1^2-carboxylic acid] | 1640 | 

Second part, the compound before the results:

Row | SMILES | IC50 [1] [nM] | microsomal CLint at 5 μM [2] [µL/min/mg] | IC50 ([3]; Homo sapiens, NCI-H929, 24 h) [nM] | microsomal CLint at 5 μM [5] [µL/min/mg] | microsomal CLint at 5 μM [6] [µL/min/mg] | Rat Liver Microsome Clint (μL/min/mg protein) ([2]; rat liver microsomes, 5 μM) | IC50 ([3]; 24 hrs) [nM] | Mouse Liver Microsome Clint (μL/min/mg protein) ([5]; mouse liver microsomes, 5 μM) | Human Liver Microsome Clint (μL/min/mg protein) ([6]; human liver microsomes, 5 μM) | IC50 ([4]; Homo sapiens, OPM-2, 24 h) [nM] | IC50 ([4]; 24 hours) [nM]
4 | Cc1nn(C)c2c1-c1c(Cl)ccc3c1c(C)c(C(=O)O)n3CCCOc1cc(cc3cc(F)ccc13)SCc1cc(nn1C)CSC2 [Cpd. No. 28, (Z)-1^5-chloro-9^6-fluoro-1^3,2^1,2^3,6^1-tetramethyl-1^1H,2^1H,6^111-10-oxa-4,8-dithia-1(4,1)-indola-2(4,5),6(3,5)-dipyrazola-9(3,1)-naphthalenacyclotridecaphane-1^2-carboxylic acid] | 14 | 38.4 | 47 | 116 | 42.8 |  |  |  |  | 66 | 
5 | Cc1c2c(nn1C)CSCc1cc(n(C)n1)CSc1cc(c3ccc(F)cc3c1)OCCCn1c(C(=O)O)c(CN(C)S(=O)(=O)C(F)(F)F)c3c-2c(Cl)ccc31 [Cpd. No. 23, (Z)-1^5-chloro-9^6-fluoro-2^1,2^5,6^1-trimethyl-1^3-(((1,1,1-trifluoro-N-methylmethyl)sulfonamido)methyl)-1^1H,2^1H,6^1H-10-oxa-4,8-dithia-1(4,1)-indola-2(4,3),6(3,5)-dipyrazola-9(3,1)-naphthalenacyclotridecaphane-1^2-carboxylic acid] | 16 | 30.4 | 1070 | 52.4 | 48.2 |  |  |  |  | 1870 | 
6 | CC(=O)NCc1c(C(=O)O)n2c3ccc(Cl)c(c13)-c1c(nn(C)c1C)CSCc1cc(n(C)n1)CSc1cc(c3ccccc3c1)OCCC2 [Cpd. No. 12, (Z)-1^3-(acetamidomethyl)-1^5-chloro-2^1,2^5,6^1-trimethyl-1^1H,2^1H,6^1E-10-oxa-4,8-dithia-1(4,1)-indola-2(4,3),6(3,5)-dipyrazola-9(3,1)-naphthalenacyclotridecaphane-1^2-carboxylic acid] | 18 | 30.6 | 273 | 13.8 | 3.6 |  |  |  |  | 9860 | 
7 | Cc1c(C(=O)O)n2c3ccc(Cl)c(c13)-c1c(nn(C)c1C)CSCc1cc(n(C)n1)CSc1cc(c3ccc(F)cc3c1)OCCC2 (atropisomer, axis not shown) [Cpd. No. 16, (S)-(Z)-1^5-chloro-9^6-fluoro-1^3,2^1,2^5,6^1-tetramethyl-1^111,2^1H,6^1H-10-oxa-4,8-dithia-1(4,1)-indola-2(4,3),6(3,5)-dipyrazola-9(3,1)-naphthalenacyclotridecaphane-1^2-carboxylic acid] | 3200 |  |  |  |  | 64.6 | 2240 | 135 | 23.4 |  | 4050
8 | CCc1c(C(=O)O)n2c3ccc(Cl)c(c13)-c1c(nn(C)c1C)CSCc1cc(n(C)n1)CSc1cc(c3ccccc3c1)OCCC2 [Cpd. No. 8, (Z)-1^5-chloro-1^3-ethyl-2^1,2^5,6^1-trimethyl-1^1H,2^1H,6^111-10-oxa-4,8-dithia-1(4,1)-indola-2(4,3),6(3,5)-dipyrazola-9(3,1)-naphthalenacyclotridecaphane-1^2-carboxylic acid] | 21 | 299 | 70 | 325 | 86.8 |  |  |  |  | 268 | 
9 | Cc1c2c(nn1C)CSCc1cc(n(C)n1)CSc1cc(c3ccc(F)cc3c1)OCCCn1c(C(=O)O)c(C(F)(F)F)c3c-2c(Cl)ccc31 [Cpd. No. 24, (Z)-1^5-chloro-9^6-fluoro-2^1,2^5,6^1-trimethyl-1^3-(trifluoromethyl)-1^1H,2^1H,6^1H-10-oxa-4,8-dithia-1(4,1)-indola-2(4,3),6(3,5)-dipyrazola-9(3,1)-naphthalenacyclotridecaphane-1^2-carboxylic acid] | 15 | 122 | 3040 | 28.8 | 21.8 |  |  |  |  | 5420 | 
